Assay results from US10011607B2, “Ethynyl derivatives” (Hoffmann-La Roche Inc., priority 2015, dated 2018).

Target: human mGlu4 receptor (Homo sapiens (Human), UniProt Q14833)
Test: Ca2+ mobilization in vitro assay on recombinant human mGlu4 expressed in HEK293 cells (PAM)
Assay type: cell-based
Conditions: for Emax: HEK293, maximal response in % of maximal stimulatory effect of saturating L-AP4, read-out: Eff. (%); for EC50: HEK293 cells, human mGlu4, in presence of EC20 of L-AP4, read-out: EC50 (nM) mGlu4PAM
Excerpt: FIG. 1: Illustrates the experimental outline for mGlu4 PAM Ca^2+ mobilization screening assay and the determination of EC50 and % Emax values. […] A depression of the signal observed after addition of the EC20 concentration of L-AP4 was indicative of an inhibitory activity of the test compound.
Determination of EC50 Values Using a Ca2+ Mobilization In Vitro Assay on Recombinant Human mGlu4 Expressed in HEK293 Cells:
A monoclonal HEK-293 cell line stably transfected with a cDNA encoding for the human mGlu4 receptor was generated; for the work with mGlu4 Positive Allosteric Modulators (PAMs), a cell line with low receptor expression levels and low constitutive receptor activity was selected to allow the differentiation of agonistic versus PAM activity. Cells were cultured according to standard protocols (Freshney, 2000) in Dulbecco's Modified Eagle Medium with high glucose supplemented with 1 mM glutamine, 10% (vol/vol) heat-inactivated bovine calf serum, Penicillin/Streptomycin, 50 μg/ml hygromycin and 15 μg/ml blasticidin (all cell culture reagents and antibiotics from Invitrogen, Basel, Switzerland).
About 24 hrs before an experiment, 5×10^4 cells/well were seeded in poly-D-lysine coated, black/clear-bottomed 96-well plates. The cells were loaded with 2.5 μM Fluo-4AM in loading buffer (1×HBSS, 20 mM HEPES) for 1 hr at 37° C. and washed five times with loading buffer. The cells were transferred into a Functional Drug Screening System 7000 (Hamamatsu, Paris, France), and 11 half logarithmic serial dilutions of test compound at 37° C. were added and the cells were incubated for 10-30 min. with on-line recording of fluorescence. Following this pre-incubation step, the agonist (2S)-2-amino-4-phosphonobutanoic acid (L-AP4) was added to the cells at a concentration corresponding to EC20 with on-line recording of fluorescence; in order to account for day-to-day variations in the responsiveness of cells, the EC20 of L-AP4 was determined immediately ahead of each experiment by recording of a full dose-response curve of L-AP4.
Responses were measured as peak increase in fluorescence minus basal (i.e. fluorescence without addition of L-AP4), normalized to the maximal stimulatory effect obtained with saturating concentrations of L-AP4. Graphs were plotted with the % maximal stimulatory using XLfit, a curve fitting program that iteratively plots the data using Levenburg Marquardt algorithm. The single site competition analysis equation used was y=A+((B−A)/(1+((x/C)D))), where y is the % maximal stimulatory effect, A is the minimum y, B is the maximum y, C is the EC50, x is the log 10 of the concentration of the competing compound and D is the slope of the curve (the Hill Coefficient). From these curves the EC50 (drug concentration at which 50% of the maximal receptor activation was achieved), the Hill coefficient as well as the maximal response in % of the maximal stimulatory effect obtained with saturating concentrations of L-AP4 were calculated (see FIG. 1).

Chain of human mGlu4 receptor (Q14833 33-912): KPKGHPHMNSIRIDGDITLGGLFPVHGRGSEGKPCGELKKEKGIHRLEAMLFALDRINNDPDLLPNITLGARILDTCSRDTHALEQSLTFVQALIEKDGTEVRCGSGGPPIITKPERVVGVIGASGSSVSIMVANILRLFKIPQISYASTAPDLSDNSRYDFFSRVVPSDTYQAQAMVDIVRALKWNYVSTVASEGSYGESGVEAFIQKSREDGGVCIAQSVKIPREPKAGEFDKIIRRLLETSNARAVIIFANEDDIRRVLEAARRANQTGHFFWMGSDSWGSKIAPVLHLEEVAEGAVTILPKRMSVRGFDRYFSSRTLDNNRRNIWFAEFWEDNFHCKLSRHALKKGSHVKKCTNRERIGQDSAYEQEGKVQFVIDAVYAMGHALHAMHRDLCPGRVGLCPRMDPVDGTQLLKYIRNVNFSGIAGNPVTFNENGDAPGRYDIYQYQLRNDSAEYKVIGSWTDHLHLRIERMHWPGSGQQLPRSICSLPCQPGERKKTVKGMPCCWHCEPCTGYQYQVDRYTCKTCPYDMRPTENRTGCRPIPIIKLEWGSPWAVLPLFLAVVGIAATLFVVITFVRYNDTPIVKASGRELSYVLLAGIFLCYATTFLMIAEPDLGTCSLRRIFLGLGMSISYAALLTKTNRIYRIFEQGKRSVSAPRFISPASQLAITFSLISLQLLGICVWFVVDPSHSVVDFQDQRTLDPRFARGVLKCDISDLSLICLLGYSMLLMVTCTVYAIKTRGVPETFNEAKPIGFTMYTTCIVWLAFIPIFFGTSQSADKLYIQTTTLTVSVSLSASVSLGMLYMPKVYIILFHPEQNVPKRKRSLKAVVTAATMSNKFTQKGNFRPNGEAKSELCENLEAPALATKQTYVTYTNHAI

SMILES: Cn1cnc(N2CCN3C(=O)N(c4c(F)cc(C#Cc5ccccc5)cc4F)C(=O)C[C@@]3(C)C2=O)n1 [Example 73, (9aS)-7-[2,6-difluoro-4-(2-phenylethynyl)phenyl]-9a-methyl-2-(1-methyl-1,2,4-triazol-3-yl)-4,9-dihydro-3H-pyrazino[1,2-c]pyrimidine-1,6,8-trione]
- Emax: 138%
- EC50: 244 nM

SMILES: CC12CC(=O)N(c3c(F)cc(C#Cc4ccccc4)cc3F)C(=O)N1CCN(c1ncc(C(F)(F)F)s1)C2=O (racemic) [Example 57, (9aRS)-7-[2,6-difluoro-4-(2-phenylethynyl)phenyl]-9a-methyl-2-[5-(trifluoromethyl)thiazol-2-yl]-4,9-dihydro-3H-pyrazino[1,2-c]pyrimidine-1,6,8-trione]
- Emax: 103%
- EC50: 108 nM

SMILES: CC(C)(C)Oc1ncc(N2CCN3C(=O)N(c4c(F)cc(C#Cc5ccccc5)cc4F)C(=O)C[C@@]3(C)C2=O)cn1 [Example 38, (9aS)-2-(2-tert-butoxypyrimidin-5-yl)-7-[2,6-difluoro-4-(2-phenylethynyl)phenyl]-9a-methyl-4,9-dihydro-3H-pyrazino[1,2-c]pyrimidine-1,6,8-trione]
- Emax: 107%

SMILES: O=C1C2CC(=O)N(c3c(F)cc(C#Cc4ccccc4)cc3F)C(=O)N2CCN1c1ccncn1 (racemic) [Example 2, (9aRS)-7-[2,6-difluoro-4-(2-phenylethynyl)phenyl]-2-pyrimidin-4-yl-3,4,9,9a-tetrahydropyrazino[1,2-c]pyrimidine-1,6,8-trione]
- Emax: 88%
- EC50: 85 nM

SMILES: Cc1cn(C)c(N2CCN3C(=O)N(c4c(F)cc(C#Cc5ccccc5)cc4F)C(=O)CC3(C)C2=O)n1 (racemic) [Example 59, (9aRS)-7-[2,6-difluoro-4-(2-phenylethynyl)phenyl]-2-(1,4-dimethylimidazol-2-yl)-9a-methyl-4,9-dihydro-3H-pyrazino[1,2-c]pyrimidine-1,6,8-trione]
- Emax: 107%
- EC50: 104 nM

SMILES: Cn1nccc1N1CCN2C(=O)N(c3c(F)cc(C#Cc4ccccc4)cc3F)C(=O)C[C@@]2(C)C1=O [Example 65, (9aS)-7-[2,6-difluoro-4-(2-phenylethynyl)phenyl]-9a-methyl-2-(2-methylpyrazol-3-yl)-4,9-dihydro-3H-pyrazino[1,2-c]pyrimidine-1,6,8-trione]
- Emax: 92%
- EC50: 92 nM

SMILES: Cn1nccc1N1CCN2C(=O)N(c3c(F)cc(C#Cc4ccccc4)cc3F)C(=O)CC2(C)C1=O (racemic) [Example 64, (9aRS)-7-[2,6-difluoro-4-(2-phenylethynyl)phenyl]-9a-methyl-2-(2-methylpyrazol-3-yl)-4,9-dihydro-3H-pyrazino[1,2-c]pyrimidine-1,6,8-trione]
- Emax: 155%
- EC50: 125 nM

SMILES: CCOC(=O)CCCN1CCN2C(=O)N(c3c(F)cc(C#Cc4ccccc4)cc3F)C(=O)C[C@@]2(C)C1=O [Example 82, Ethyl 4-[(9aS)-7-[2,6-difluoro-4-(2-phenylethynyl)phenyl]-9a-methyl-1,6,8-trioxo-4,9-dihydro-3H-pyrazino[1,2-c]pyrimidin-2-yl]butanoate]
- Emax: 134%
- EC50: 201 nM

SMILES: COCC12CC(=O)N(c3c(F)cc(C#Cc4ccccc4)cc3F)C(=O)N1CCN(c1cnn(C)c1)C2=O (racemic) [Example 104, (9aRS)-7-[2,6-difluoro-4-(2-phenylethynyl)phenyl]-9a-(methoxymethyl)-2-(1-methylpyrazol-4-yl)-4,9-dihydro-3H-pyrazino[1,2-c]pyrimidine-1,6,8-trione]
- Emax: 148%
- EC50: 273 nM

SMILES: Cn1cc(N2CCN3C(=O)N(c4c(F)cc(C#Cc5ccccc5)cc4F)C(=O)CC3(C)C2=O)cn1 (racemic) [Example 67, (9aRS)-7-[2,6-difluoro-4-(2-phenylethynyl)phenyl]-9a-methyl-2-(1-methylpyrazol-4-yl)-4,9-dihydro-3H-pyrazino[1,2-c]pyrimidine-1,6,8-trione]
- Emax: 129%
- EC50: 113 nM

SMILES: CC12CC(=O)N(c3c(F)cc(C#Cc4ccccc4)cc3F)C(=O)N1CCN(c1ccnc(Cl)c1)C2=O (racemic) [Example 18, (9aRS)-2-(2-chloro-4-pyridyl)-7-[2,6-difluoro-4-(2-phenylethynyl)phenyl]-9a-methyl-4,9-dihydro-3H-pyrazino[1,2-c]pyrimidine-1,6,8-trione]
- Emax: 131%
- EC50: 114 nM

SMILES: Cc1cc(N2CCN3C(=O)N(c4c(F)cc(C#Cc5ccccc5)cc4F)C(=O)CC3(C)C2=O)n(C)n1 (racemic) [Example 66, (9aRS)-7-[2,6-difluoro-4-(2-phenylethynyl)phenyl]-2-(2,5-dimethylpyrazol-3-yl)-9a-methyl-4,9-dihydro-3H-pyrazino[1,2-c]pyrimidine-1,6,8-trione]
- Emax: 142%
- EC50: 85 nM

SMILES: Cc1cc(N2CCN3C(=O)N(c4c(F)cc(C#Cc5ccccc5)cc4F)C(=O)CC3(C)C2=O)nc(C)n1 (racemic) [Example 29, (9aRS)-7-[2,6-difluoro-4-(2-phenylethynyl)phenyl]-2-(2,6-dimethylpyrimidin-4-yl)-9a-methyl-4,9-dihydro-3H-pyrazino[1,2-c]pyrimidine-1,6,8-trione]
- Emax: 112%
- EC50: 177 nM

SMILES: CC12CC(=O)N(c3c(F)cc(C#Cc4ccccc4)cc3F)C(=O)N1CCN(Cc1ccncc1)C2=O (racemic) [Example 94, (9aRS)-7-[2,6-difluoro-4-(2-phenylethynyl)phenyl]-9a-methyl-2-(4-pyridylmethyl)-4,9-dihydro-3H-pyrazino[1,2-c]pyrimidine-1,6,8-trione]
- Emax: 84%
- EC50: 127 nM

SMILES: Cc1cncc(N2CCN3C(=O)N(c4c(F)cc(C#Cc5ccccc5)cc4F)C(=O)CC3(C)C2=O)c1 (racemic) [Example 14, (9aRS)-7-[2,6-difluoro-4-(2-phenylethynyl)phenyl]-9a-methyl-2-(5-methyl-3-pyridyl)-4,9-dihydro-3H-pyrazino[1,2-c]pyrimidine-1,6,8-trione]
- Emax: 129%
- EC50: 105 nM

SMILES: COCCCn1cc(N2CCN3C(=O)N(c4c(F)cc(C#Cc5ccccc5)cc4F)C(=O)C[C@@]3(C)C2=O)cn1 [Example 72, (9aS)-7-[2,6-difluoro-4-(2-phenylethynyl)phenyl]-2-[1-(3-methoxypropyl)pyrazol-4-yl]-9a-methyl-4,9-dihydro-3H-pyrazino[1,2-c]pyrimidine-1,6,8-trione]
- Emax: 149%
- EC50: 122 nM

SMILES: COc1cnc(N2CCN3C(=O)N(c4c(F)cc(C#Cc5ccccc5)cc4F)C(=O)C[C@@]3(C)C2=O)cn1 [Example 44, (9aS)-7-[2,6-difluoro-4-(2-phenylethynyl)phenyl]-2-(5-methoxypyrazin-2-yl)-9a-methyl-4,9-dihydro-3H-pyrazino[1,2-c]pyrimidine-1,6,8-trione]
- Emax: 107%
- EC50: 123 nM

SMILES: CC12CC(=O)N(c3c(F)cc(C#Cc4ccccc4)cc3F)C(=O)N1CCN(c1ncccn1)C2=O (racemic) [Example 25, (9aRS)-7-[2,6-difluoro-4-(2-phenylethynyl)phenyl]-9a-methyl-2-pyrimidin-2-yl-4,9-dihydro-3H-pyrazino[1,2-c]pyrimidine-1,6,8-trione]
- Emax: 122%
- EC50: 135 nM

SMILES: CC12CC(=O)N(c3ccc(C#Cc4ccccc4)cc3F)C(=O)N1CCN(c1cccnc1)C2=O (racemic) [Example 108, (9aRS)-7-[2-fluoro-4-(2-phenylethynyl)phenyl]-9a-methyl-2-(3-pyridyl)-4,9-dihydro-3H-pyrazino[1,2-c]pyrimidine-1,6,8-trione]
- Emax: 103%
- EC50: 267 nM

SMILES: C[C@@]12CC(=O)N(c3c(F)cc(C#Cc4ccccc4)cc3F)C(=O)N1CCN(c1cnc(OCc3ccccc3)nc1)C2=O [Example 41, (9aS)-2-(2-benzyloxypyrimidin-5-yl)-7-[2,6-difluoro-4-(2-phenylethynyl)phenyl]-9a-methyl-4,9-dihydro-3H-pyrazino[1,2-c]pyrimidine-1,6,8-trione]
- Emax: 99%
- EC50: 81 nM

SMILES: CC12CC(=O)N(c3c(F)cc(C#Cc4ccccc4)cc3Cl)C(=O)N1CCN(c1ccncc1)C2=O (racemic) [Example 75, (9aRS)-7-[2-chloro-6-fluoro-4-(2-phenylethynyl)phenyl]-9a-methyl-2-(4-pyridyl)-4,9-dihydro-3H-pyrazino[1,2-c]pyrimidine-1,6,8-trione]
- Emax: 128%
- EC50: 210 nM
